# In patent publication US20090170914A1, “Cermide Kinase Modulation” (priority 2006, published 2009):
compound,measurement,value
CCCCCCCCCCCCCC(=O)Nc1ccc2nc(NC(=O)c3ccccc3)sc2c1,melting point,160 to 167 °C
